Measurements from patent US5789386A, “Fluorine-containing anthracycline derivatives having hydroxyl groups(s) mono- or di-o-aminoalkanoylated in the sugar moiety thereof” (priority 1995, dated 1998).
Values after ≈ are worked out from the molar mass of the structure shown. Read-outs that look alike come from different tables or passages of the source. Values belong to the molecule of their own block, whether it stands above or below them.

How the values were obtained:
[1] = tested on: Leukemia L-1210 cells; test: Antitumor test against leukemia L-1210 in CDF1 mice (T/C, %); assay type: in vivo, mouse (CDF1); details: for % Increase in life-span (T/C, %) / mice cured and surviving for 60 days or longer / mice tested: 9 days
Protocol: Thus, to evaluate the antitumor effects of the new compounds according to the first aspect of this invention against experimental tumors in animals, CDF1 mice (four mice per group) were intraperitoneally transplanted with cells of Leukemia L-1210 at an amount of 1×10^5 cells/mouse. Since an elapsed time of 24 hours from the transplantation of the leukemia cells, a test compound according to this invention was administered intraperitoneally to the mice under test for 9 consecutive days once per day. […] While, mice of the control group (the untreated group) were administered with only physiological saline after the transplantation of the L-1210 cells. During the observation period, the numbers of the surviving mice in the treated group and in the control group were counted, and the mean survival days of mice in the treated group and in the control group were then calculated. From the mean survival day (C) of the untreated mice of the control group and the mean survival day (T) of the treated mice of the treated group, there were evaluated percentages (%) of the increase in the life-span of the treated mice, as T/C %. For a comparison purpose, 7-O-(2,6-dideoxy-2-fluoro-α-L-talopyranosyl)daunomycinone (abbreviation: FT-DM); 7-O-(2,6-dideoxy-2-fluoro-α-L-talopyranosyl)adriamycinone(abbreviation: FT-ADM); and adriamycin were also tested in the same manner as above. Incidentally, the mean survival day of mice of the control group (the untreated group) was amounting to 8 to 9 days, and the mean survival day of mice of the comparative groups having received the administration of adriamycin was varying dependently on the dosage of adriamycin.
Notes; Asterisks (*) indicate that development of toxicity such as
toxicityrelated death or a body weight loss was observed on the
corresponding mice tested.

[2] = tested on: mouse leukemia, P388 cells; test: In vitro growth inhibition of P388 cells, 72 hours; assay type: cell-based
[3] = tested on: adriamycin-resistant P388 cells (P388/ADR); test: In vitro growth inhibition of adriamycin-resistant P388 cells (P388/ADR), 72 hours; assay type: cell-based; details: Mus musculus, 72 hours, test compounds as trifluoroacetate, read-out: IC50
[4] = 0.6 mg/kg/day i.p., ">" = at least one of four mice survived 60 days or longer
[5] = 1.25 mg/kg/day i.p., ">" = at least one of four mice survived 60 days or longer
[6] = 2.5 mg/kg/day i.p., ">" = at least one of four mice survived 60 days or longer
[7] = 5 mg/kg/day i.p., ">" = at least one of four mice survived 60 days or longer
[8] = P388, 72 hours, test compounds as trifluoroacetate, read-out: IC50

Compound: COc1cccc2c1C(=O)c1c(O)c3c(c(O)c1C2=O)C[C@@](O)(C(C)=O)C[C@@H]3O[C@@H]1O[C@@H](C)[C@@H](O)[C@@H](O)[C@H]1F [FT-DM, 7-O-(2,6-dideoxy-2-fluoro-α-L-talopyranosyl)daunomycinone, reference compound]
% Increase in life-span (T/C, %) ([1]; 0.15 mg/kg/day i.p.): 105%
% Increase in life-span (T/C, %) [1, 4]: 125%
% Increase in life-span (T/C, %) [1, 5]: 171%
% Increase in life-span (T/C, %) [1, 6]: 217%
% Increase in life-span (T/C, %) [1, 7]: 184%

Compound: COc1cccc2c1C(=O)c1c(O)c3c(c(O)c1C2=O)C[C@@](O)(C(=O)CO)C[C@@H]3O[C@@H]1O[C@@H](C)[C@@H](OC(=O)[C@@H](N)C(C)C)[C@@H](OC(=O)[C@@H](N)C(C)C)[C@H]1F [Compound 11d, 7-O-(2,6-dideoxy-2-fluoro-3,4-di-O-L-valyl-α-L-talopyranosyl)adriamycinone]
IC50 ([2]; P388, 72 h): < 9.8 ng/mL
IC50 [3]: 0.32 µg/mL (≈ 0.421 µM)

Compound: COc1cccc2c1C(=O)c1c(O)c3c(c(O)c1C2=O)C[C@@](O)(C(=O)CO)C[C@@H]3O[C@@H]1O[C@@H](C)[C@@H](OC(=O)[C@H](C)N)[C@@H](O)[C@H]1F [Compound 9b, 7-O-(4-O-L-alanyl-2,6-dideoxy-2-fluoro-α-L-talopyranosyl)adriamycinone]
antitumor activities (in words) ([1]; compared with FT-DM, FT-ADM, daunomycin, adriamycin or another test compound): remarkably improved antitumor activities in comparison with those of the parent compound, FT-ADM

Compound: COc1cccc2c1C(=O)c1c(O)c3c(c(O)c1C2=O)C[C@@](O)(C(=O)CO)C[C@@H]3O[C@@H]1O[C@@H](C)[C@@H](OC(=O)CN)[C@@H](OC(=O)CN)[C@H]1F [Compound 11a, 7-O-(2,6-dideoxy-2-fluoro-3,4-di-O-glycyl-α-L-talopyranosyl)adriamycinone]
% Increase in life-span (T/C, %) ([1]; 0.15 mg/kg/day i.p.): 111%
% Increase in life-span (T/C, %) ([1]; 0.3 mg/kg/day i.p., ">" = at least one of four mice survived 60 days or longer): 125%
% Increase in life-span (T/C, %) [1, 4]: 170%
% Increase in life-span (T/C, %) [1, 5]: 321%
mice cured and surviving for 60 days or longer / mice tested ([1]; 2.5 mg/kg/day i.p.): 1/4
% Increase in life-span (T/C, %) [1, 6]: > 430%
mice cured and surviving for 60 days or longer / mice tested ([1]; 5 mg/kg/day i.p.): 2/4
% Increase in life-span (T/C, %) [1, 7]: > 518%
IC50 ([2]; P388, 72 h): < 9.8 ng/mL
IC50 [3]: 0.32 µg/mL (≈ 0.473 µM)

Compound: COc1cccc2c1C(=O)c1c(O)c3c(c(O)c1C2=O)C[C@@](O)(C(=O)CO)C[C@@H]3O[C@H]1C[C@H](OC(=O)CN)[C@H](OC(=O)CN)[C@H](C(F)(F)F)O1 [Compound 25, 7-O-(2,6-dideoxy-6,6,6-trifluoro-3,4-di-O-glycyl-α-L-lyxo-hexopryranosyl)adriamycinone]
IC50 ([2]; P388, 72 h): < 9.8 ng/mL

Compound: COc1cccc2c1C(=O)c1c(O)c3c(c(O)c1C2=O)C[C@@](O)(C(=O)CO)C[C@@H]3O[C@H]1C[C@H](OC(=O)[C@H](C)N)[C@H](OC(=O)[C@H](C)N)[C@H](C(F)(F)F)O1 [Compound 43, 7-O-(3,4-di-O-L-alanyl-2,6-dideoxy-6,6,6-trifluoro-α-L-lyxo-hexopyranosyl)adriamycinone]
IC50 ([2]; P388, 72 h): < 9.8 ng/mL
IC50 [3]: 0.22 µg/mL (≈ 0.297 µM)

IC50 [2, 8]: 32 ng/mL (≈ 0.0406 µM)
IC50 [3]: 0.27 µg/mL (≈ 0.342 µM)
Compound: COc1cccc2c1C(=O)c1c(O)c3c(c(O)c1C2=O)C[C@@](O)(C(=O)CO)C[C@@H]3O[C@@H]1O[C@@H](C)[C@@H](OC(=O)[C@@H](N)CC(C)C)[C@@H](OC(=O)[C@@H](N)CC(C)C)[C@H]1F [Compound 11e, 7-O-(2,6-dideoxy-2-fluoro-3,4-di-O-L-leucyl-α-L-talopyranosyl)adriamycinone]

Compound: COc1cccc2c1C(=O)c1c(O)c3c(c(O)c1C2=O)C[C@@](O)(C(=O)CO)C[C@@H]3O[C@@H]1O[C@@H](C(F)(F)F)[C@@H](OC(=O)[C@H](C)N)[C@@H](OC(=O)[C@H](C)N)[C@H]1F [Compound 31, 7-O-(3,4-di-O-L-alanyl-2,6-dideoxy-2,6,6,6-tetrafluoro-α-L-talopyranosyl)adriamycinone]
IC50 [2, 8]: < 9.8 ng/mL
IC50 [3]: 0.14 µg/mL (≈ 0.185 µM)
